Results: patent publication US8415342B2, “Besifloxacin ophthalmic composition for the treatment or control of infection” (Bausch & Lomb Incorporated, priority 2008, dated 2013)
Values after ≈ are worked out from the molar mass of the structure shown.

What was measured:
Assay type in all cases: cell-based
S. aureus = assay: MIC and MBC:MIC ratio, recent ocular isolates; details: S. aureus (N = 30)
Staphylococcus aureus = assay: MIC, CLSI broth microdilution, clinical isolates; details: for MIC50 / MIC90: Staphylococcus aureus
[1] = tested on: Staphylococcus epidermidis; assay: MIC, CLSI broth microdilution, clinical isolates; details: for MIC50: Staphylococcus epidermidis
[2] = tested on: Staphylococcus lugdunensis; assay: MIC, CLSI broth microdilution, clinical isolates; details: Staphylococcus lugdunensis (N = 15)
[3] = tested on: Staphylococcus saprophyticus; assay: MIC, CLSI broth microdilution, clinical isolates; details: Staphylococcus saprophyticus (N = 101)
[4] = tested on: Staphylococcus haemolyticus; assay: MIC, CLSI broth microdilution, clinical isolates; details: Staphylococcus haemolyticus (N = 101)
Staphylococcus warneri = assay: MIC, CLSI broth microdilution, clinical isolates; details: Staphylococcus warneri (N = 50)
Staphylococcus hominis = assay: MIC, CLSI broth microdilution, clinical isolates; details: Staphylococcus hominis (N = 50)
Streptococcus agalactiae = assay: MIC, CLSI broth microdilution, clinical isolates; details: Streptococcus agalactiae (N = 100)
Streptococcus pneumoniae = assay: MIC, CLSI broth microdilution, clinical isolates
[5] = Staphylococcus aureus, recent ocular isolates
[6] = Staphylococcus aureus (CNS, N = 16)
[7] = Staphylococcus aureus (CS, N = 14)
[8] = Staphylococcus aureus (all phenotypes, N = 30)
[9] = MRSA, Staphylococcus aureus (MRSA, N = 11)
[10] = MSSA, Staphylococcus aureus (MSSA, N = 19)
[11] = Staphylococcus epidermidis (CNS, N = 6)
[12] = Staphylococcus epidermidis (CS, N = 9)
[13] = Staphylococcus epidermidis (MSSE, N = 6)
[14] = Staphylococcus epidermidis (all phenotypes, N = 15)
[15] = Streptococcus pneumoniae (PSSP, N = 31)

`N[C@@H]1CCCCN(c2c(F)cc3c(=O)c(C(=O)O)cn(C4CC4)c3c2Cl)C1` [Besifloxacin, (R)-(+)-(3-amino-2,3,4,5,6,7-hexahydro-1H-azepin-1-yl)-8-chloro-1-cyclopropyl-6-fluoro-1,4,-dihydro-4-oxo-3-quinolinecarboxylic acid] was tested, and the “% of isolates with MBC:MIC ratio 1” value (S. aureus) was 56.7%, the “% of isolates with MBC:MIC ratio 2” value (S. aureus) was 23.3% and the “% of isolates with MBC:MIC ratio 4” value (S. aureus) was 6.7%. The “% of isolates with MBC:MIC ratio 8” value (S. aureus) was 13.3%, the “% of isolates with MBC:MIC ratio ≧16” value (S. aureus) was 0.0% and the “MIC Range” value (S. aureus; recent ocular isolates) was 0.015 to 4 µg/mL. For the same molecule, the MIC50 (S. aureus; [5]) was 0.12 µg/mL, the MIC90 (S. aureus; [5]) was 4 µg/mL and the “MIC Range” value (Staphylococcus aureus; [6]) was 0.03 to 4 µg/mL. For the same molecule, the “MIC Range” value (Staphylococcus aureus; [7]) was 0.015 to 0.25 µg/mL, the “MIC Range” value (Staphylococcus aureus; Staphylococcus aureus (MRSA, N = 11)) was 0.015 to 4 µg/mL and the “MIC Range” value (Staphylococcus aureus; Staphylococcus aureus (MSSA, N = 19)) was 0.015 to 4 µg/mL. The “MIC Range” value (Staphylococcus aureus; [8]) was 0.015 to 4 µg/mL, the MIC50 (Staphylococcus aureus; [9]) was 0.5 µg/mL (≈ 1.27 µM) and the MIC90 (Staphylococcus aureus; [9]) was 4 µg/mL (≈ 10.2 µM). For the same molecule, the MIC50 (Staphylococcus aureus; [10]) was 0.015 µg/mL (≈ 0.0381 µM), the MIC90 (Staphylococcus aureus; [10]) was 0.25 µg/mL (≈ 0.635 µM) and the MIC50 (Staphylococcus aureus; [6]) was 0.25 µg/mL (≈ 0.635 µM). For the same molecule, the MIC90 (Staphylococcus aureus; [6]) was 4 µg/mL (≈ 10.2 µM), the MIC50 (Staphylococcus aureus; [7]) was 0.015 µg/mL (≈ 0.0381 µM) and the MIC90 (Staphylococcus aureus; [7]) was 0.12 µg/mL (≈ 0.305 µM). The MIC50 (Staphylococcus aureus; [8]) was 0.12 µg/mL (≈ 0.305 µM), the MIC90 (Staphylococcus aureus; [8]) was 4 µg/mL (≈ 10.2 µM) and the “MIC Range” value [1, 11] was 0.25 to 4 µg/mL. The “MIC Range” value [1, 12] was 0.015 to 0.03 µg/mL, the “MIC Range” value ([1]; Staphylococcus epidermidis (MRSE, N = 9)) was 0.015 to 4 µg/mL and the “MIC Range” value [1, 13] was 0.015 to 0.25 µg/mL. The MIC90 [1, 14] was 4 µg/mL (≈ 10.2 µM), the “MIC Range” value [1, 14] was 0.015 to 4 µg/mL and the MIC50 ([1]; MRSE, Staphylococcus epidermidis (MRSE, N = 9)) was 0.25 µg/mL (≈ 0.635 µM). The MIC50 [1, 11] was 0.25 µg/mL (≈ 0.635 µM), the MIC50 [1, 12] was 0.03 µg/mL (≈ 0.0762 µM) and the MIC50 [1, 13] was 0.03 µg/mL (≈ 0.0762 µM). For the same molecule, the MIC50 [1, 14] was 0.03 µg/mL (≈ 0.0762 µM), the MIC50 [2] was 0.06 µg/mL (≈ 0.152 µM) and the MIC90 [2] was 0.5 µg/mL (≈ 1.27 µM). For the same molecule, the “MIC Range” value [2] was 0.015 to 2 µg/mL, the MIC50 [3] was 0.06 µg/mL (≈ 0.152 µM) and the MIC90 [3] was 0.12 µg/mL (≈ 0.305 µM). The “MIC Range” value [3] was 0.015 to 0.25 µg/mL, the MIC50 [4] was 0.5 µg/mL (≈ 1.27 µM) and the MIC90 [4] was 1 µg/mL (≈ 2.54 µM). For the same molecule, the “MIC Range” value [4] was 0.015 to 4 µg/mL, the MIC50 (Staphylococcus warneri) was 0.06 µg/mL (≈ 0.152 µM) and the MIC90 (Staphylococcus warneri) was 1 µg/mL (≈ 2.54 µM). For the same molecule, the “MIC Range” value (Staphylococcus warneri) was 0.015 to 2 µg/mL, the MIC50 (Staphylococcus hominis) was 0.25 µg/mL (≈ 0.635 µM) and the MIC90 (Staphylococcus hominis) was 1 µg/mL (≈ 2.54 µM). The “MIC Range” value (Staphylococcus hominis) was 0.015 to 2 µg/mL, the “MIC Range” value (Streptococcus agalactiae) was 0.03 to 0.12 µg/mL and the MIC50 (Streptococcus agalactiae; read-out: MIC50) was 0.06 µg/mL (≈ 0.152 µM). The MIC90 (Streptococcus agalactiae; read-out: MIC90) was 0.06 µg/mL (≈ 0.152 µM), the “MIC Range” value (Streptococcus pneumoniae; Streptococcus pneumoniae (PISP, N = 2)) was 0.06 to 0.12 µg/mL and the “MIC Range” value (Streptococcus pneumoniae; Streptococcus pneumoniae (PRSP, N = 2)) was 0.03 to 0.06 µg/mL. The MIC50 (Streptococcus pneumoniae; [15]) was 0.06 µg/mL (≈ 0.152 µM), the MIC90 (Streptococcus pneumoniae; [15]) was 0.06 µg/mL (≈ 0.152 µM) and the “MIC Range” value (Streptococcus pneumoniae; [15]) was 0.015 to 0.5 µg/mL. The “MIC Range” value (Streptococcus pneumoniae; Streptococcus pneumoniae (all phenotypes, N = 35)) was 0.015 to 0.5 µg/mL.
